Measured values reported in ChEMBL document CHEMBL3774317, “Design and synthesis of novel tamoxifen analogues that avoid CYP2D6 metabolism” (Eur J Med Chem, 2016).

How the values were obtained:
[1] = tested on: SK-MEL-2; assay: Cytotoxicity against human SK-MEL-2 cells assessed as growth inhibition after 48 hrs by SRB assay; type: functional; conditions: SK-MEL-2, 48 h; for CC50: read-out: LC50 (the source's name)
[2] = tested on: NCI-H23; assay: Cytotoxicity against human NCI-H23 cells assessed as growth inhibition after 48 hrs by SRB assay; type: functional; conditions: NCI-H23, 48 h; for CC50: read-out: LC50 (the source's name)
[3] = tested on: SN12C; assay: Cytotoxicity against human SN12C cells assessed as growth inhibition after 48 hrs by SRB assay; type: functional
[4] = Cytotoxicity against human MOLT4 cells assessed as growth inhibition after 48 hrs by SRB assay; type: functional; conditions: MOLT-4, 48 h
[5] = tested on: NCI-H522; assay: Cytotoxicity against human NCI-H522 cells assessed as growth inhibition after 48 hrs by SRB assay; type: functional; conditions: NCI-H522, 48 h; for CC50: read-out: LC50 (the source's name)
[6] = tested on: M14; assay: Cytotoxicity against human M14 cells assessed as growth inhibition after 48 hrs by SRB assay; type: functional; conditions: M14, 48 h; for CC50: read-out: LC50 (the source's name)
[7] = Cytotoxicity against human UACC62 cells assessed as growth inhibition after 48 hrs by SRB assay; type: functional; conditions: UACC-62, 48 h; for CC50: read-out: LC50 (the source's name)
[8] = molecular target: T1, Estrogen receptor (Homo sapiens, UniProt P03372)
T1 sequence (P03372 whole entry): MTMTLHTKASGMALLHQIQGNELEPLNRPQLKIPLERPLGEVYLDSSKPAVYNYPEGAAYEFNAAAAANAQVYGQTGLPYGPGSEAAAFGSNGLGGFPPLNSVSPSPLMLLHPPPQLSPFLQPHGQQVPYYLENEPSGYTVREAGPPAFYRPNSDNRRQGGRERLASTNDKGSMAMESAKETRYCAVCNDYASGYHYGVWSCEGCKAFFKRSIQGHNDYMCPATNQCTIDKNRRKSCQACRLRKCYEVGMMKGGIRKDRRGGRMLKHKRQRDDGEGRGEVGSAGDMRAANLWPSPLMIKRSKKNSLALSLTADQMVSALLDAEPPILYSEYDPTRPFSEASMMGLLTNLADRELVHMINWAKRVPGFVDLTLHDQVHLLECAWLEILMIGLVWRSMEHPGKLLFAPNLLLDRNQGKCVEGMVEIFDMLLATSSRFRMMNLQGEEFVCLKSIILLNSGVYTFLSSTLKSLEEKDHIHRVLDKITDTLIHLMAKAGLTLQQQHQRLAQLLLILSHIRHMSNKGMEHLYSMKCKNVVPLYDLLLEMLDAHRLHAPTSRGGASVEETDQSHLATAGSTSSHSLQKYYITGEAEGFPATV
Description: Displacement of [3H]-E2 from human ER-alpha incubated for 16 to 20 hrs by liquid scintillation counting analysis

[9] = Cytotoxicity against human OVCAR4 cells assessed as growth inhibition after 48 hrs by SRB assay; type: functional; conditions: OVCAR-4, 48 h
[10] = Cytotoxicity against human UACC257 cells assessed as growth inhibition after 48 hrs by SRB assay; type: functional; conditions: UACC-257, 48 h
[11] = Cytotoxicity against human LOXIMVI cells assessed as growth inhibition after 48 hrs by SRB assay; type: functional; conditions: LOX IMVI
[12] = tested on: A498; assay: Cytotoxicity against human A498 cells assessed as growth inhibition after 48 hrs by SRB assay; type: functional; conditions: A498, 48 h
[13] = Cytotoxicity against human HCT116 cells assessed as growth inhibition after 48 hrs by SRB assay; type: functional; conditions: HCT-116, 48 h
[14] = Cytotoxicity against human Caki1 cells assessed as growth inhibition after 48 hrs by SRB assay; type: functional; conditions: CAKI-1, 48 h
[15] = Cytotoxicity against human HCT15 cells assessed as growth inhibition after 48 hrs by SRB assay; type: functional; conditions: HCT-15, 48 h
[16] = tested on: U-251; assay: Cytotoxicity against human U251 cells assessed as growth inhibition after 48 hrs by SRB assay; type: functional; conditions: U-251, 48 h
[17] = Cytotoxicity against human SF539 cells assessed as growth inhibition after 48 hrs by SRB assay; type: functional; conditions: SF-539, 48 h
[18] = tested on: ACHN; assay: Cytotoxicity against human ACHN cells assessed as growth inhibition after 48 hrs by SRB assay; type: functional
[19] = Cytotoxicity against human COLO205 cells assessed as growth inhibition after 48 hrs by SRB assay; type: functional; conditions: COLO 205, 48 h; for CC50: read-out: LC50 (the source's name)
[20] = tested on: EKVX; assay: Cytotoxicity against human EKVX cells assessed as growth inhibition after 48 hrs by SRB assay; type: functional
[21] = Cytotoxicity against human HCC2998 cells assessed as growth inhibition after 48 hrs by SRB assay; type: functional; conditions: HCC 2998, 48 h; for CC50: read-out: LC50 (the source's name)
[22] = Cytotoxicity against human HL-60(TB) cells assessed as growth inhibition after 48 hrs by SRB assay; type: functional; conditions: HL-60, 48 h; for CC50: read-out: LC50 (the source's name)
[23] = tested on: MDA-MB-468; assay: Cytotoxicity against human MDA-MB-468 cells assessed as growth inhibition after 48 hrs by SRB assay; type: functional; conditions: MDA-MB-468, 48 h; for CC50: read-out: LC50 (the source's name)
[24] = Cytotoxicity against human HOP92 cells assessed as growth inhibition after 48 hrs by SRB assay; type: functional; conditions: HOP-92, 48 h; for CC50: read-out: LC50 (the source's name)
[25] = tested on: NCI-H322M; assay: Cytotoxicity against human NCI-H322M cells assessed as growth inhibition after 48 hrs by SRB assay; type: functional; conditions: for CC50: read-out: LC50 (the source's name)
[26] = Cytotoxicity against human RPMI8226 cells assessed as growth inhibition after 48 hrs by SRB assay; type: functional; conditions: RPMI-8226, 48 h
[27] = Cytotoxicity against human TK10 cells assessed as growth inhibition after 48 hrs by SRB assay; type: functional; conditions: TK-10, 48 h

Work on `C/C(=C(/c1ccc(O)cc1)c1ccc(OCCN2CCCC2)cc1)c1ccccc1` yielded a GI50 [1] of 1.97 µM, a TGI [1] of 3.95 µM and a CC50 [1] of 7.94 µM. The GI50 [2] was 4.31 µM, the TGI [2] was 18.2 µM and the CC50 [2] was 50.8 µM. For the same molecule, the GI50 [3] was 9.17 µM, the LC50 (concentration killing 50% of cells) [3] was 68.7 µM and the TGI [3] was 25.7 µM. For the same molecule, the GI50 [4] was 2.94 µM, the LC50 [4] was 67.2 µM and the TGI [4] was 11 µM. It also gave a GI50 [5] of 2.1 µM, a TGI [5] of 5.09 µM and a CC50 [5] of 18.6 µM. It also gave a GI50 [6] of 1.88 µM, a TGI [6] of 4.08 µM and a CC50 [6] of 8.86 µM. The GI50 [7] was 2.26 µM, the TGI [7] was 4.72 µM and the CC50 [7] was 9.84 µM. The IC50 [8] was 0.0008 µM, the GI50 [9] was 4.7 µM and the LC50 [9] was 43.3 µM. For the same molecule, the TGI [9] was 17.5 µM, the GI50 [10] was 2.03 µM and the LC50 [10] was 7.61 µM. For the same molecule, the TGI [10] was 3.93 µM, the GI50 [11] was 1.72 µM and the LC50 (concentration killing 50% of cells) [11] was 6.29 µM. For the same molecule, the TGI [11] was 3.29 µM, the GI50 [12] was 1.67 µM and the LC50 [12] was 38.5 µM. For the same molecule, the TGI [12] was 8.49 µM, the GI50 [13] was 2.92 µM and the LC50 [13] was 32.6 µM. The TGI [13] was 10.1 µM, the GI50 [14] was 3.02 µM and the LC50 [14] was 37.3 µM. For the same molecule, the TGI [14] was 13.9 µM, the GI50 [15] was 1.81 µM and the LC50 (concentration killing 50% of cells) [15] was 14.4 µM. It also gave a TGI [15] of 4.64 µM, a GI50 [16] of 2.24 µM and an LC50 (50% lethal concentration) [16] of 18 µM. The TGI [16] was 5.49 µM, the GI50 [17] was 1.81 µM and the LC50 [17] was 7.79 µM. It also gave a TGI [17] of 3.76 µM, a GI50 [18] of 4.28 µM and an LC50 (concentration causing 50% net cell kill) [18] of 44.1 µM. It also gave a TGI [18] of 16.3 µM, a GI50 [19] of 1.7 µM and a TGI [19] of 3.38 µM. It also gave a CC50 [19] of 6.73 µM, a GI50 [20] of 2.46 µM and an LC50 [20] of 33.9 µM. For the same molecule, the TGI [20] was 11.5 µM, the GI50 [21] was 2.34 µM and the TGI [21] was 6.18 µM. It also gave a CC50 [21] of 28.5 µM, a GI50 [22] of 2.04 µM and a TGI [22] of 4.97 µM. The CC50 [22] was 23.4 µM, the GI50 [23] was 1.84 µM and the TGI [23] was 4.47 µM. For the same molecule, the CC50 [23] was 13 µM, the GI50 [24] was 2.24 µM and the TGI [24] was 7.34 µM. For the same molecule, the CC50 [24] was 31.2 µM, the GI50 [25] was 5.12 µM and the TGI [25] was 18.6 µM. It also gave a CC50 [25] of 47 µM, a GI50 [26] of 2.4 µM and an LC50 [26] of 65 µM. For the same molecule, the TGI [26] was 6.72 µM, the GI50 [27] was 4.61 µM and the LC50 [27] was 40.7 µM. For the same molecule, the TGI [27] was 16.4 µM.
For `CCCCCCCCCC(=O)Oc1ccc(/C(=C(/C)c2ccccc2)c2ccc(OCCN3CCCC3)cc2)cc1`, the GI50 [1] was 9.49 µM, the TGI [1] was 18.1 µM and the CC50 [1] was 34.4 µM. For the same molecule, the GI50 [2] was 7.74 µM, the TGI [2] was 16.1 µM and the CC50 [2] was 33.4 µM. The GI50 [3] was 9.15 µM, the LC50 (concentration killing 50% of cells) [3] was 35.1 µM and the TGI [3] was 17.9 µM. It also gave a GI50 [4] of 8.61 µM, an LC50 [4] of 47.7 µM and a TGI [4] of 20.3 µM. It also gave a GI50 [5] of 9.36 µM, a TGI [5] of 18.4 µM and a CC50 [5] of 36.3 µM. For the same molecule, the TGI [6] was 16.5 µM, the CC50 [6] was 32.8 µM and the GI50 [7] was 9.18 µM. The TGI [7] was 16.8 µM, the CC50 [7] was 30.9 µM and the IC50 [8] was 0.0484 µM. It also gave a GI50 [9] of 7.39 µM, an LC50 [9] of 29.9 µM and a TGI [9] of 14.9 µM. The GI50 [10] was 9.23 µM, the LC50 [10] was 30.6 µM and the TGI [10] was 16.8 µM. It also gave a GI50 [11] of 8.02 µM, an LC50 (concentration killing 50% of cells) [11] of 27.2 µM and a TGI [11] of 14.8 µM. It also gave an LC50 [12] of 29.4 µM, a TGI [12] of 13.5 µM and a GI50 [13] of 8.01 µM. The LC50 [13] was 30.6 µM, the TGI [13] was 15.7 µM and the GI50 [14] was 6.77 µM. The LC50 [14] was 28.7 µM, the TGI [14] was 13.9 µM and the GI50 [15] was 6.69 µM. For the same molecule, the LC50 (concentration killing 50% of cells) [15] was 25.6 µM, the TGI [15] was 13.1 µM and the GI50 [16] was 8.01 µM. The LC50 (50% lethal concentration) [16] was 29.8 µM, the TGI [16] was 15.4 µM and the GI50 [17] was 8.7 µM. For the same molecule, the LC50 [17] was 32.9 µM, the TGI [17] was 16.9 µM and the GI50 [18] was 8.16 µM. It also gave an LC50 (concentration causing 50% net cell kill) [18] of 29.3 µM, a TGI [18] of 15.5 µM and a TGI [19] of 14.7 µM. For the same molecule, the CC50 [19] was 29.1 µM, the GI50 [20] was 6.92 µM and the LC50 [20] was 26.6 µM. The TGI [20] was 13.6 µM, the GI50 [21] was 8.66 µM and the TGI [21] was 17.2 µM. The CC50 [21] was 34.3 µM, the GI50 [22] was 9.24 µM and the TGI [22] was 18.7 µM. The CC50 [22] was 37.8 µM, the GI50 [23] was 7.26 µM and the TGI [23] was 14.7 µM. The CC50 [23] was 29.7 µM, the GI50 [24] was 7.01 µM and the TGI [24] was 15.4 µM. For the same molecule, the CC50 [24] was 33.8 µM, the GI50 [25] was 8.04 µM and the TGI [25] was 15.7 µM. It also gave a CC50 [25] of 30.7 µM, a GI50 [26] of 9.13 µM and an LC50 [26] of 48.5 µM. For the same molecule, the TGI [26] was 21 µM, the GI50 [27] was 8.86 µM and the LC50 [27] was 31.3 µM. For the same molecule, the TGI [27] was 16.7 µM.
